From patent publication US20120245137A1 (Zalicus Pharmaceuticals Ltd., priority 2009, published 2012)
pIC50: −log10 of the molar value. Where two headings read alike, the source gives them in different places.

How the values were obtained:
Type in all cases: cell-based
Human Cav 2.2 channels = Human Cav 2.2 channels (Homo sapiens, UniProt Q00975); assay: Fluorescent assay for CaV2.2 channels using potassium depolarization (VIPR/FLIPR); conditions: FLIPR data
How it was run: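 Fluo-4 calcium fluorescence (480/535 nm) was recorded on VIPR or FLIPR after depolarization to 70 mM final potassium. Before this, cells were preincubated 30 min at 25 °C with compound in 4–30 mM potassium, so that state-dependent block could be assessed; the cells were HEK293 coexpressing Cav2.2, α2δ, β and Kir2.3.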

CAv1.2 [1] = target: T1, CAv1.2 (Homo sapiens, UniProt Q13936); assay: FLIPR data, CAv1.2 channel blocking (Table 6); conditions: for CAv1.2 IC50 Ratio closed/inact.: ratio closed/inactivated IC50
T-type calcium channel [2] = target: T-type calcium channel (Homo sapiens, UniProt O95180); assay: T-type channel blocking, FLIPR data (Table 6)
Chain of T-type calcium channel (Homo sapiens, UniProt O95180) (O95180 whole entry): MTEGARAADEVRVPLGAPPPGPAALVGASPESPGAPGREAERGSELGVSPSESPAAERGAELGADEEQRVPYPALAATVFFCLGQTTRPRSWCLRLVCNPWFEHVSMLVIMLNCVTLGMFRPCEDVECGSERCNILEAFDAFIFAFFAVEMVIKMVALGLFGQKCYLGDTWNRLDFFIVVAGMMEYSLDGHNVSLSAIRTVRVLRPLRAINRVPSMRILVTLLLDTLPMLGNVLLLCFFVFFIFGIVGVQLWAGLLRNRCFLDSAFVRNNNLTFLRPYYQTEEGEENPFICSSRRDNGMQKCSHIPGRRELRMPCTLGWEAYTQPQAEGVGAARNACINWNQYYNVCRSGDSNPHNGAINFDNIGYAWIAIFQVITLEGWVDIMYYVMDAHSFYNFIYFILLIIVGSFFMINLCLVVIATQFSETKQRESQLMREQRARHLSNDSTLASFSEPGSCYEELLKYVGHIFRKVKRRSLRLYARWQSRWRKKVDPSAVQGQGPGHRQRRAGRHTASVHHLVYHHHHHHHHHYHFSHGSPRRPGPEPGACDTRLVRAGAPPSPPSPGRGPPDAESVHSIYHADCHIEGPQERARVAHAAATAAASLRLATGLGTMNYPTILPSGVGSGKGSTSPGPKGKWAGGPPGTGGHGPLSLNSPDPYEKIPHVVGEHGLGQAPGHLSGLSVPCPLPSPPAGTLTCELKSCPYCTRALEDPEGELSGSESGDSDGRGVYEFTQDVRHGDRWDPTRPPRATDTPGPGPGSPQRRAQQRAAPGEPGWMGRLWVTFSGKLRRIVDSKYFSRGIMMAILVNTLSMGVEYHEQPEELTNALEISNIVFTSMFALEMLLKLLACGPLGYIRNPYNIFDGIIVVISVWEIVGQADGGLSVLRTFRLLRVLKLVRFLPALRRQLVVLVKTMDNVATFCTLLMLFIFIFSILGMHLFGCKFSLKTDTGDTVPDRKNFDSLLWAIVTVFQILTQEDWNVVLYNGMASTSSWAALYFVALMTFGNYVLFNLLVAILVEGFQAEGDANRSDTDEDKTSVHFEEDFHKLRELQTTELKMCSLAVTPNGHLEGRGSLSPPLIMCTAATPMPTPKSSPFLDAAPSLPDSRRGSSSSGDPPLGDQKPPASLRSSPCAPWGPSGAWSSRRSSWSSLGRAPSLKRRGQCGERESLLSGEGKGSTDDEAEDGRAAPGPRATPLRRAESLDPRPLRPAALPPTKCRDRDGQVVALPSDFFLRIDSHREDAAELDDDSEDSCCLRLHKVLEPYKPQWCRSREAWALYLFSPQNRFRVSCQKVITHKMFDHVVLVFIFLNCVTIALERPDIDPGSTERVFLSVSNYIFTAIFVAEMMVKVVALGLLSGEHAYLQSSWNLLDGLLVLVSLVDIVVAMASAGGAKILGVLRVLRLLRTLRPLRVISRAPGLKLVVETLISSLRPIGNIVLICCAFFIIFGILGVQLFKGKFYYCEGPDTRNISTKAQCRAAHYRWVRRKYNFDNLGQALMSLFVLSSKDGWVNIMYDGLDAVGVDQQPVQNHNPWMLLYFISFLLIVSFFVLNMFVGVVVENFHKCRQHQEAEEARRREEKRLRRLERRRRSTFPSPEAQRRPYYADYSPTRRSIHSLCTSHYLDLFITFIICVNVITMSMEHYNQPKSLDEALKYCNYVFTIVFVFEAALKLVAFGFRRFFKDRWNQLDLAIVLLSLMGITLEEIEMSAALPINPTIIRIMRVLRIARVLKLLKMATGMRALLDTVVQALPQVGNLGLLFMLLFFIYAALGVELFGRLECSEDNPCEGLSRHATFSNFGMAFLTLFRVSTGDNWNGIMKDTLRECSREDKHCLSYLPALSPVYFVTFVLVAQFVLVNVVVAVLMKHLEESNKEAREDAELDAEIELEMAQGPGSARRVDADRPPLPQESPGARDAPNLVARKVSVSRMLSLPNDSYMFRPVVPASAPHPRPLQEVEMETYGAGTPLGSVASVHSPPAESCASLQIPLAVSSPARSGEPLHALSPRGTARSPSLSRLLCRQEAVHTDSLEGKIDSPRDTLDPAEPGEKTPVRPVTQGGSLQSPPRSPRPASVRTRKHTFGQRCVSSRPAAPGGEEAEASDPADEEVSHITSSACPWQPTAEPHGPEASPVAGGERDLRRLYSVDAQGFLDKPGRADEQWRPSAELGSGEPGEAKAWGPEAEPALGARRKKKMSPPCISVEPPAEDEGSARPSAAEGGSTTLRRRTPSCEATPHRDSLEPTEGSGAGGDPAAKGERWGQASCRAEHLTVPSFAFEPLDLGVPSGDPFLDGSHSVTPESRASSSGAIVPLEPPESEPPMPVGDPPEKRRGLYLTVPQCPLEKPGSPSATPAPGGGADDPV
Source text: (§1) Another method, high-throughput spectrophotometric assay, utilizes loading of the cell lines with a fluorescent dye sensitive to intracellular calcium concentration and subsequent examination of the effects of compounds on the ability of depolarization by potassium chloride or other means to alter intracellular calcium levels.

T-type calcium channel [3] = target: T-type calcium channel (Homo sapiens, UniProt O43497); assay: T-type channel blocking, FLIPR data (Table 6); conditions: CAv3.1
Chain of T-type calcium channel (Homo sapiens, UniProt O43497) (O43497 whole entry): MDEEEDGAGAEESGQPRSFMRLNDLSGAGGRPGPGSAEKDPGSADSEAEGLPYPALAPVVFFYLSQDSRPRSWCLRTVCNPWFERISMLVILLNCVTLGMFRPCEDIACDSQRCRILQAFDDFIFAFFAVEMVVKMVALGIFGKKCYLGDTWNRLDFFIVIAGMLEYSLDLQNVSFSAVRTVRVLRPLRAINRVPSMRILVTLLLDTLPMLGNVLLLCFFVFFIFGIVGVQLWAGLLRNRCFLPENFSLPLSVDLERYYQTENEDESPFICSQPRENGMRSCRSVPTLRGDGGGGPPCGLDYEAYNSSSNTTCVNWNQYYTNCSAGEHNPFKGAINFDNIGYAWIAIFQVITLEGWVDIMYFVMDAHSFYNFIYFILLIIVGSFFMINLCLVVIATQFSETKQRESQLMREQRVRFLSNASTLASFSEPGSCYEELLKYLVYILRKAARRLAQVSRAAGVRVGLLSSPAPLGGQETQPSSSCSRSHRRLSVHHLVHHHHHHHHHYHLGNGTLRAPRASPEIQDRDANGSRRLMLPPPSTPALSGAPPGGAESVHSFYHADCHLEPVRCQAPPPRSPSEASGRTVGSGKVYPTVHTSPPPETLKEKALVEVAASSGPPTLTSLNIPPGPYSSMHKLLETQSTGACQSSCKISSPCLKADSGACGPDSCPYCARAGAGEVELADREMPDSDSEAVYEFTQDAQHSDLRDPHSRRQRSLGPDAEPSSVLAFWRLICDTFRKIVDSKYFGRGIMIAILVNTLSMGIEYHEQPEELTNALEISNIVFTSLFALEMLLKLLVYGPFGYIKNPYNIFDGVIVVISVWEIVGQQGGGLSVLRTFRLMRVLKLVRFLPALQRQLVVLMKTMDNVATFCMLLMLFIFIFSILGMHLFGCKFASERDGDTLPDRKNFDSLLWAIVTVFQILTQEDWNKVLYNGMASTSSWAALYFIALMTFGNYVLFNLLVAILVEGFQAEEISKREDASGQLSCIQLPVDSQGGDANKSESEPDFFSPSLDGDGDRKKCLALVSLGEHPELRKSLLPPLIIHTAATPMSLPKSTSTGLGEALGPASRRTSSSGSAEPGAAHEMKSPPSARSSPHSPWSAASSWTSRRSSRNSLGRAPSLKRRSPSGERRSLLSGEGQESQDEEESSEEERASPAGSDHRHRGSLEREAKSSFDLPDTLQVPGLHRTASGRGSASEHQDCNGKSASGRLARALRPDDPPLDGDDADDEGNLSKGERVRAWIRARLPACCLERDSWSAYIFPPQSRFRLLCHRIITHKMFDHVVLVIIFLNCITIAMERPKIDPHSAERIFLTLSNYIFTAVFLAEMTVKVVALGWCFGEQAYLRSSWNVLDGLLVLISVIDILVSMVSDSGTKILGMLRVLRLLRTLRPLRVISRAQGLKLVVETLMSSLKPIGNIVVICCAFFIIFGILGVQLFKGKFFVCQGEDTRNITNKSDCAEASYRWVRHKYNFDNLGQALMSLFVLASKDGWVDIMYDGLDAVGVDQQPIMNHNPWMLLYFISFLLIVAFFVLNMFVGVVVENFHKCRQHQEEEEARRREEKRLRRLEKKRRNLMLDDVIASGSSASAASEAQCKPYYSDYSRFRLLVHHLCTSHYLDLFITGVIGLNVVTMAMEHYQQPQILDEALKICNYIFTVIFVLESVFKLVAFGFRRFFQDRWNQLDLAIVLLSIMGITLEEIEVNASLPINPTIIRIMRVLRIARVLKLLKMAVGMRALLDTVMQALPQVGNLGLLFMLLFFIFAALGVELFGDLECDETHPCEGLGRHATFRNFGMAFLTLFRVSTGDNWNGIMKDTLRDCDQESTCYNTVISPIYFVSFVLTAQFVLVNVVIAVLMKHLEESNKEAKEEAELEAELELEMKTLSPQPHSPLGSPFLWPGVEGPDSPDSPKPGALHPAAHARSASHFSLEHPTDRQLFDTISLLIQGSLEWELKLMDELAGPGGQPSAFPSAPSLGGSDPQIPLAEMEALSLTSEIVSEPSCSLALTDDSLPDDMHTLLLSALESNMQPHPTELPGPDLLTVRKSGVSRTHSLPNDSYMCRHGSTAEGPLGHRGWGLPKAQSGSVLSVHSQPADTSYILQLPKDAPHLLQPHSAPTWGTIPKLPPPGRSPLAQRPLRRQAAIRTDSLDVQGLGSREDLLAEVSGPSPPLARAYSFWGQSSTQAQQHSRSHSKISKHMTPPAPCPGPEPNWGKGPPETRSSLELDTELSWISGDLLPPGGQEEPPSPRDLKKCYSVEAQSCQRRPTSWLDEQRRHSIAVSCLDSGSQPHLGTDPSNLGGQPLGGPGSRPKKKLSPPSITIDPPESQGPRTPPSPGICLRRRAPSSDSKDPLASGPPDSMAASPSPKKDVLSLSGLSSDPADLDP
Source text: as §1

CAv1.2 [4] = target: T1, CAv1.2; assay: L-type (CAv1.2) channel blocking, FLIPR data (Table 6)
[5] = closed state, read-out: CAv2.2 IC50 Closed
[6] = inactivated state, read-out: CAv2.2 IC50 Inact.
[7] = closed state, read-out: CAv1.2 IC50 Closed
[8] = inactivated state, read-out: CAv1.2 IC50 Inact.
[9] = CAv3.2, closed state, read-out: CAv3.2 IC50 Closed
[10] = CAv3.2, inactivated state, read-out: CAv3.2 IC50 Inact.
[11] = CAv3.2, ratio closed/inactivated IC50

Structure (SMILES) | pIC50 (Human Cav 2.2 channels; [5]) | pIC50 (Human Cav 2.2 channels; [6]) | CAv2.2 IC50 Ratio closed/inact. (Human Cav 2.2 channels; ratio closed/inactivated IC50) | pIC50 (CAv1.2 [1]; [7]) | pIC50 (CAv1.2 [1]; [8]) | CAv1.2 IC50 Ratio closed/inact. (CAv1.2 [1]) | pIC50 (T-type calcium channel [2]; [9]) | pIC50 (T-type calcium channel [2]; [10]) | CAv3.2 IC50 Ratio closed/inact. (T-type calcium channel [2]; [11]) | pIC50 (T-type calcium channel [3]) | CAv2.2 IC50 Ratio closed/inact. (Human Cav 2.2 channels; ratio closed/inact.) | CAv3.2 IC50 Ratio closed/inact. (T-type calcium channel [2]; CAv3.2, ratio closed/inact.) | pIC50 (CAv1.2 [4]; [7]) | pIC50 (CAv1.2 [4]; [8]) | CAv1.2 IC50 Ratio closed/inact. (CAv1.2 [4]; ratio closed/inact.)
CC(C)(C[C@H]1C[C@@H](NC(=O)c2ccc(OCC(F)(F)F)nc2)C1)S(=O)(=O)c1cccc(C(F)(F)F)c1 [Compound 737] | 6.07 | 7.40 | 21.5 | 5.37 | 5.89 | 3.3 | 5.69 | 6.28 | 4 | 5.66 |  |  |  |  | 
Cn1nc(C(F)(F)F)cc1C(=O)N[C@H]1C[C@@H](CC(C)(C)S(=O)(=O)c2cccc(C(F)(F)F)c2)C1 [Compound 738] | 5.90 | 6.92 | 10.6 | 5.27 | 5.63 | 2.3 | 5.65 | 6.28 | 4.3 | 5.24 |  |  |  |  | 
CC(C)(C[C@H]1C[C@@H](NC(=O)[C@@H]2CCCC[C@@H]2N)C1)S(=O)(=O)c1cccc(C(F)(F)F)c1 [Compound 740] | 5.41 | 6.07 |  |  |  |  | ≤ 5.00 | 5.00 |  | ≤ 5.00 | 4.6 | 1 | ≤ 5.00 | ≤ 5.00 | 
CC(C)(C[C@H]1C[C@@H](NC(=O)[C@@H]2CCCC[C@H]2N)C1)S(=O)(=O)c1cccc(C(F)(F)F)c1 [Compound 741] | 5.41 | 5.88 |  |  |  |  | ≤ 5.00 | 5.00 |  | ≤ 5.00 | 2.9 | 1 | ≤ 5.00 | ≤ 5.00 | 
CC(C)(C[C@H]1C[C@H](NC(=O)[C@H]2CCCC[C@@H]2N)C1)S(=O)(=O)c1cccc(C(F)(F)F)c1 [Compound 743] | 5.47 | 5.84 |  |  |  |  |  | 5.00 |  |  | 2.3 |  | ≤ 5.00 | ≤ 5.00 | 
CC(C)(C[C@H]1C[C@@H](NC(=O)[C@H]2CCCC[C@H]2N)C1)S(=O)(=O)c1cccc(C(F)(F)F)c1 [Compound 744] | 5.39 | 6.03 |  |  |  |  | ≤ 5.00 |  |  | ≤ 5.00 | 4.4 |  | ≤ 5.00 | ≤ 5.00 | 
CC(C)S(=O)(=O)c1cc(C(F)(F)F)cnc1C(=O)NC[C@H]1C[C@H](S(=O)(=O)c2cccc(Cl)c2)C1 [Compound 770] | 5.00 | 5.64 |  |  |  |  | ≤ 5.00 | 5.00 |  |  | 4.4 | 1 | ≤ 5.00 | ≤ 5.00 | 
O=C(NC[C@H]1C[C@H](S(=O)(=O)c2cccc(Cl)c2)C1)c1ccc(Cl)cn1 [Compound 772] |  | 5.25 |  |  |  |  | ≤ 5.00 | 5.00 |  |  | 1.8 | 1 | ≤ 5.00 |  | 
O=C(NC[C@H]1C[C@H](S(=O)(=O)c2cccc(Cl)c2)C1)c1ccc(C(F)(F)F)cn1 [Compound 774] | 5.00 | 5.36 |  |  |  |  | 5.18 | 5.00 |  |  | 2.3 | 0.7 | ≤ 5.00 | 5.19 | 1.6
N[C@H]1CCCC[C@@H]1C(=O)NC[C@H]1C[C@H](S(=O)(=O)c2cccc(Cl)c2)C1 [Compound 779] | 5.00 | ≤ 5.00 |  |  |  |  |  | 5.00 |  |  | 1 |  | ≤ 5.00 | ≤ 5.00 | 
N[C@@H]1CCCC[C@@H]1C(=O)NC[C@H]1C[C@H](S(=O)(=O)c2cccc(Cl)c2)C1 [Compound 780] | 5.00 | ≤ 5.00 |  |  |  |  | ≤ 5.00 |  |  |  | 1 |  | ≤ 5.00 | ≤ 5.00 | 
